Assay type in all cases: functional
The test system of assay [1] is Plasma. Briefly: Anticoagulant activity in human plasma assessed as activated partial thromboplastin time at 0.01 mg/ml after 15 mins.
Assay [2] deals with Plasma. The experiment in a line: Anticoagulant activity in human plasma assessed as activated partial thromboplastin time at 0.03 mg/ml after 15 mins.
The test system of assay [3] is Plasma. Briefly: Anticoagulant activity in human plasma assessed as activated partial thromboplastin time at 0.1 mg/ml after 15 mins.
Assay [4] has as its system Plasma. The experiment in a line: Anticoagulant activity in human plasma assessed as activated partial thromboplastin time at 0.3 mg/ml after 15 mins.
Assay [5] has as its system Plasma. Briefly: Anticoagulant activity in human plasma assessed as activated partial thromboplastin time at 1 mg/ml after 15 mins.

Five compounds from ChEMBL document CHEMBL1143892, “Oligo(tyrosine sulfate)s as heparin pentasaccharide mimic: evaluation by surface noncovalent affinity mass spectrometry” (2008) can be followed below.

Non-standard residues stand in square brackets, D forms with d. Residues, ends and D or L forms follow the SMILES beside them. *: point of attachment. X1 = O=C([C@H](Cc1ccc(OS(=O)(=O)O)cc1)NS(=O)(=O)O)*; sY = N[C@@H](Cc1ccc(OS(=O)(=O)O)cc1)C(=O)O

As to `N[C@@H](Cc1ccc(OS(=O)(=O)[O-])cc1)C(=O)N[C@@H](Cc1ccc(OS(=O)(=O)[O-])cc1)C(=O)N[C@@H](Cc1ccc(OS(=O)(=O)[O-])cc1)C(=O)N[C@@H](Cc1ccc(OS(=O)(=O)[O-])cc1)C(=O)N[C@@H](Cc1ccc(OS(=O)(=O)[O-])cc1)C(=O)N[C@@H](Cc1ccc(OS(=O)(=O)[O-])cc1)C(=O)N[C@@H](Cc1ccc(OS(=O)(=O)[O-])cc1)C(=O)N[C@@H](Cc1ccc(OS(=O)(=O)[O-])cc1)C(=O)N[C@@H](Cc1ccc(OS(=O)(=O)[O-])cc1)C(=O)N[C@@H](Cc1ccc(OS(=O)(=O)[O-])cc1)C(=O)O.[Na+].[Na+].[Na+].[Na+].[Na+].[Na+].[Na+].[Na+].[Na+].[Na+]` (H-[sY][sY][sY][sY][sY][sY][sY][sY][sY][sY]-OH), the APTT stood at 30.6 s in the assay on Plasma [1]; 32.1 s in the assay with Plasma [2]; 41 s in the assay with Plasma [3]; 90.5 s with Plasma [4]; 153.7 s with Plasma [5].
The matching figures for `O=C(O)[C@H](Cc1ccc(OS(=O)(=O)[O-])cc1)NC(=O)[C@H](Cc1ccc(OS(=O)(=O)[O-])cc1)NC(=O)[C@H](Cc1ccc(OS(=O)(=O)[O-])cc1)NC(=O)[C@H](Cc1ccc(OS(=O)(=O)[O-])cc1)NC(=O)[C@H](Cc1ccc(OS(=O)(=O)[O-])cc1)NC(=O)[C@H](Cc1ccc(OS(=O)(=O)[O-])cc1)NC(=O)[C@H](Cc1ccc(OS(=O)(=O)[O-])cc1)NC(=O)[C@H](Cc1ccc(OS(=O)(=O)[O-])cc1)NC(=O)[C@H](Cc1ccc(OS(=O)(=O)[O-])cc1)NS(=O)(=O)[O-].[Na+].[Na+].[Na+].[Na+].[Na+].[Na+].[Na+].[Na+].[Na+].[Na+]` (X1-[sY][sY][sY][sY][sY][sY][sY][sY]-OH): 31.9 s, 33.1 s, 36.5 s, 45.7 s and 95.8 s.
The matching figures for `N[C@@H](Cc1ccc(OS(=O)(=O)[O-])cc1)C(=O)N[C@@H](Cc1ccc(OS(=O)(=O)[O-])cc1)C(=O)N[C@@H](Cc1ccc(OS(=O)(=O)[O-])cc1)C(=O)N[C@@H](Cc1ccc(OS(=O)(=O)[O-])cc1)C(=O)N[C@@H](Cc1ccc(OS(=O)(=O)[O-])cc1)C(=O)N[C@@H](Cc1ccc(OS(=O)(=O)[O-])cc1)C(=O)N[C@@H](Cc1ccc(OS(=O)(=O)[O-])cc1)C(=O)O.[Na+].[Na+].[Na+].[Na+].[Na+].[Na+].[Na+]` (H-[sY][sY][sY][sY][sY][sY][sY]-OH): 30.4 s, 30.5 s, 31 s, 32.4 s and 40.6 s.
The matching figures for `O=C([O-])[C@H](Cc1ccc(OS(=O)(=O)[O-])cc1)NC(=O)[C@H](Cc1ccc(OS(=O)(=O)[O-])cc1)NC(=O)[C@H](Cc1ccc(OS(=O)(=O)[O-])cc1)NC(=O)[C@H](Cc1ccc(OS(=O)(=O)[O-])cc1)NC(=O)[C@H](Cc1ccc(OS(=O)(=O)[O-])cc1)NC(=O)[C@H](Cc1ccc(OS(=O)(=O)[O-])cc1)NC(=O)[C@H](Cc1ccc(OS(=O)(=O)[O-])cc1)NC(=O)[C@H](Cc1ccc(OS(=O)(=O)[O-])cc1)NC(=O)[C@H](Cc1ccc(OS(=O)(=O)[O-])cc1)NC(=O)[C@H](Cc1ccc(OS(=O)(=O)[O-])cc1)NC(=O)[C@H](Cc1ccc(OS(=O)(=O)[O-])cc1)NC(=O)[C@H](Cc1ccc(OS(=O)(=O)[O-])cc1)NS(=O)(=O)[O-].[Na+].[Na+].[Na+].[Na+].[Na+].[Na+].[Na+].[Na+].[Na+].[Na+].[Na+].[Na+].[Na+].[Na+]` (X1-[sY][sY][sY][sY][sY][sY][sY][sY][sY][sY][sY]-OH): 32 s, 37.6 s, 50.3 s, 75.7 s and 172.1 s.
On to `O=C(O)[C@H](Cc1ccc(OS(=O)(=O)[O-])cc1)NC(=O)[C@H](Cc1ccc(OS(=O)(=O)[O-])cc1)NC(=O)[C@H](Cc1ccc(OS(=O)(=O)[O-])cc1)NC(=O)[C@H](Cc1ccc(OS(=O)(=O)[O-])cc1)NC(=O)[C@H](Cc1ccc(OS(=O)(=O)[O-])cc1)NC(=O)[C@H](Cc1ccc(OS(=O)(=O)[O-])cc1)NS(=O)(=O)[O-].[Na+].[Na+].[Na+].[Na+].[Na+].[Na+].[Na+]` (X1-[sY][sY][sY][sY][sY]-OH), for which the APTT in the assay with Plasma [1] is listed as 30.8 s; in the assay with Plasma [2] it was 31.2 s; in the assay with Plasma [3] it was 32.3 s; with Plasma [4], 35.7 s; with Plasma [5], 64.8 s.
